Data published in patent US12129246B1, “Hydroquinazoline derivatives for the treatment of a disease or disorder” (Novartis AG, priority 2023, dated 2024).
Like-named read-outs stand apart in the source and are kept apart here.

Tests used:
[1] = molecular target: T1, human NPR1 (Homo sapiens, UniProt P16066); test: Cellular cGMP production assay, human NPR1 expressing CHO-K1 cells (CisBio HTRF); assay type: cell-based; conditions: for AC50: cGMP production, 30 min at 37° C., 12-point dose-response from 30 μM; for Human NPR1 Amax (% of ANP): maximum cGMP production as percentage of the maximum cGMP produced with ANP
T1 construct: host or cells: CHO-K1
T1 sequence (P16066 33-1061): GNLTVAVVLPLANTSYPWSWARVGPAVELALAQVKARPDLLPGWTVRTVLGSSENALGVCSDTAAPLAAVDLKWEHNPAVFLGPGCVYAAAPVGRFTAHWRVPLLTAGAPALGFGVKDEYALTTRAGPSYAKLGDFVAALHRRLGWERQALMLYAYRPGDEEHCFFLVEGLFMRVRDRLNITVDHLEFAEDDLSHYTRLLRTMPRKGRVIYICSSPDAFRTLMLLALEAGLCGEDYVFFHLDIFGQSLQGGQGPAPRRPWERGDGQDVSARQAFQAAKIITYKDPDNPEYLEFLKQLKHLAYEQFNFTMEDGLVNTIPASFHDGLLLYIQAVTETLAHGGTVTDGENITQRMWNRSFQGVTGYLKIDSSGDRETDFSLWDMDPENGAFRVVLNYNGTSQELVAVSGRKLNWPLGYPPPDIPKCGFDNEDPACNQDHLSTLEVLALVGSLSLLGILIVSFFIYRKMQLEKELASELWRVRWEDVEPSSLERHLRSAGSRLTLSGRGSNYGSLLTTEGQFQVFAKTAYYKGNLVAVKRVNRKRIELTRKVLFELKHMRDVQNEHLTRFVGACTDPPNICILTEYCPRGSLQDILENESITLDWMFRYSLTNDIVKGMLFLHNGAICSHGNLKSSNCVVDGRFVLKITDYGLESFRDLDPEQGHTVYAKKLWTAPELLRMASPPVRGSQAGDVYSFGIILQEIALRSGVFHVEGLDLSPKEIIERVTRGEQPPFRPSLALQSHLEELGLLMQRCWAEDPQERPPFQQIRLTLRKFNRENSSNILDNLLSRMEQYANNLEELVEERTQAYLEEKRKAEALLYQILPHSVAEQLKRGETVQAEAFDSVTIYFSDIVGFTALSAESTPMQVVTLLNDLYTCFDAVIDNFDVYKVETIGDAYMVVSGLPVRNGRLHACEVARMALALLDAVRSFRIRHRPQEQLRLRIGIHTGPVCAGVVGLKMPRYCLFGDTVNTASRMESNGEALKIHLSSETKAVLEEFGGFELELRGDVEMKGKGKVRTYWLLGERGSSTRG
Procedure, shortened: (§1)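 12-pt 3-fold dose-response, top 30 μM; buffer PBS + 0.1% BSA + 1 mM IBMX (PDE inhibitor); 30 min, 37 °C. Lyse, add cGMP-d2 + anti-cGMP-cryptate, 1 h RT. Ex 317 / em 665 nm; Delta F converted to cGMP via calibrator standard curve.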

[2] = molecular target: monkey NPR1 (Macaca fascicularis, UniProt A0A7N9DBT9); test: Cellular cGMP production assay, monkey NPR1 expressing CHO-K1 cells (CisBio HTRF); assay type: cell-based; conditions: for Monkey NPR1 Amax (% of ANP): maximum cGMP production as percentage of the maximum cGMP produced with ANP
Sequence of monkey NPR1 (A0A7N9DBT9 entry or part of it): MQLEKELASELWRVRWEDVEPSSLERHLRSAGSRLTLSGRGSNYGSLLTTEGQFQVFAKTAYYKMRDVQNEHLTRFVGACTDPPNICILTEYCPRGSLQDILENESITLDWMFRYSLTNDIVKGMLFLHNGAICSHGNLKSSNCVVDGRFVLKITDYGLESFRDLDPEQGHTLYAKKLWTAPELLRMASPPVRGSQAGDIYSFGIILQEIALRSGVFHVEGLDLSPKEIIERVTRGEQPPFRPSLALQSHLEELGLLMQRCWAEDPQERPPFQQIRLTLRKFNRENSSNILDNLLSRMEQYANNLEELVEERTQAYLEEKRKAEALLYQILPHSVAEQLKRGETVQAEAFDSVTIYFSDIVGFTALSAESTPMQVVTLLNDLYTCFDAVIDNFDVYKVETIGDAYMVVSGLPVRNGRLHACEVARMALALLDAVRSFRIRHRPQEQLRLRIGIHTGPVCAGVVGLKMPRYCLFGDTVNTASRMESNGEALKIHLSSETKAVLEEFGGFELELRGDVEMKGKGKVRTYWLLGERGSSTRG
Procedure, shortened: as §1

[3] = cGMP production, monkey NPR1 CHO-K1 cells, 30 min at 37° C., 12-point dose-response from 30 μM, read-out: Monkey NPR1 AC50

For `CC[C@@H](Nc1nc2c(c(N[C@@H](CN3C4CCCC3CCC4)c3ccccc3)n1)C[C@H](c1ccccc1)CC2)[C@H]1CC[C@H](C(=O)O)CC1` [Compound 108, (1R,4r)-4-((R)-1-(((R)-4-(((R)-2-((1S,5S)-9-azabicyclo[3.3.1]nonan-9-yl)-1-phenylethyl)amino)-6-phenyl-5,6,7,8-tetrahydroquinazolin-2-yl)amino)propyl)cyclohexane-1-carboxylic acid], the AC50 [1] was 410 nM, the “Human NPR1 Amax (% of ANP)” value [1] was 93.072 % of ANP and the AC50 [2] was 248 nM. The “Monkey NPR1 Amax (% of ANP)” value ([2]; monkey NPR1 CHO-K1 cells) was 99.706 % of ANP.
`CC[C@@H](Nc1nc2c(c(N[C@@H](CN3CCCC4(CCOC4)C3)c3cnn(CC)c3)n1)C[C@H](c1ccccc1)CC2)[C@H]1CC[C@H](C(=O)O)CC1` (stereo partly drawn) [Compound 109, (1R,4r)-4-((1R)-1-(((6R)-4-(((1R)-1-(1-ethyl-1H-pyrazol-4-yl)-2-(2-oxa-7-azaspiro[4.5]decan-7-yl)ethyl)amino)-6-phenyl-5,6,7,8-tetrahydroquinazolin-2-yl)amino)propyl)cyclohexane-1-carboxylic acid] was tested, and the AC50 [1] was 412 nM, the “Human NPR1 Amax (% of ANP)” value [1] was 91.101 % of ANP and the AC50 [2, 3] was 190 nM. The “Monkey NPR1 Amax (% of ANP)” value ([2]; monkey NPR1 CHO-K1 cells) was 115.338 % of ANP.
With `CC[C@H]([C@H]1CC[C@H](C(=O)O)CC1)N(C)c1nc2c(c(N[C@@H](CN3CCC[C@H](C)C3)c3cnn(C)c3)n1)CN(c1ccc(F)cc1)CC2` [Compound 110, (1R,4r)-4-((R)-1-((6-(4-fluorophenyl)-4-(((R)-1-(1-methyl-1H-pyrazol-4-yl)-2-((S)-3-methylpiperidin-1-yl)ethyl)amino)-5,6,7,8-tetrahydropyrido[4,3-d]pyrimidin-2-yl)(methyl)amino)propyl)cyclohexane-1-carboxylic acid] the AC50 [1] was 419 nM, the “Human NPR1 Amax (% of ANP)” value [1] was 99.979 % of ANP and the AC50 [2, 3] was 238 nM. The “Monkey NPR1 Amax (% of ANP)” value ([2]; monkey NPR1 CHO-K1 cells) was 103.438 % of ANP.
In the case of `CC[C@@H](N(C)c1nc2c(c(N[C@@H](CN3C4CCCC3CC4)c3sc(C)nc3C)n1)C[C@H](c1cccc(F)c1)CC2)C12CC(C(=O)O)(C1)C2` [Compound 111, 3-((1R)-1-(((6R)-4-(((1S)-2-(8-azabicyclo[3.2.1]octan-8-yl)-1-(2,4-dimethylthiazol-5-yl)ethyl)amino)-6-(3-fluorophenyl)-5,6,7,8-tetrahydroquinazolin-2-yl)(methyl)amino)propyl)bicyclo[1.1.1]pentane-1-carboxylic acid], the AC50 [1] is reported as 424 nM, the “Human NPR1 Amax (% of ANP)” value [1] is reported as 106.085 % of ANP and the AC50 [2] is reported as 271 nM. For the same molecule, the “Monkey NPR1 Amax (% of ANP)” value ([2]; monkey NPR1 CHO-K1 cells) was 103.264 % of ANP.
With `CC[C@H]([C@H]1CC[C@H](C(=O)O)CC1)N(C)c1nc2c(c(N[C@@H](CN3C4CCCC3CC(O)C4)c3ccccc3)n1)C[C@H](c1ccccc1)CC2` (stereo partly drawn) [Compound 112, (1R,4r)-4-((1R)-1-(((6R)-4-(((1R)-2-((1R,5S)-3-hydroxy-9-azabicyclo[3.3.1]nonan-9-yl)-1-phenylethyl)amino)-6-phenyl-5,6,7,8-tetrahydroquinazolin-2-yl)(methyl)amino)propyl)cyclohexane-1-carboxylic acid] the AC50 [1] was 427 nM, the “Human NPR1 Amax (% of ANP)” value [1] was 90.394 % of ANP and the AC50 [2] was 394 nM. For the same molecule, the “Monkey NPR1 Amax (% of ANP)” value ([2]; monkey NPR1 CHO-K1 cells) was 97.009 % of ANP.
For `CC[C@@H](N(C)c1nc2c(c(N[C@@H](CN3C4CCCC3CC4)c3scnc3C)n1)C[C@H](c1cccc(F)c1)CC2)C12CC(C(=O)O)(C1)C2` [Compound 113, 3-((1R)-1-(((6R)-4-(((1S)-2-(8-azabicyclo[3.2.1]octan-8-yl)-1-(4-methylthiazol-5-yl)ethyl)amino)-6-(3-fluorophenyl)-5,6,7,8-tetrahydroquinazolin-2-yl)(methyl)amino)propyl)bicyclo[1.1.1]pentane-1-carboxylic acid], the AC50 [1] was 438 nM, the “Human NPR1 Amax (% of ANP)” value [1] was 98.462 % of ANP and the AC50 [2] was 460 nM. For the same molecule, the “Monkey NPR1 Amax (% of ANP)” value ([2]; monkey NPR1 CHO-K1 cells) was 99.894 % of ANP.
In the case of `CC[C@@H](Nc1nc2c(c(N[C@@H](CN3CCCCC3)c3scnc3C)n1)C[C@H](c1ccccc1)CC2)[C@H]1CC[C@H](C(=O)O)CC1` [Compound 114, (1R,4r)-4-((R)-1-(((R)-4-(((S)-1-(4-methylthiazol-5-yl)-2-(piperidin-1-yl)ethyl)amino)-6-phenyl-5,6,7,8-tetrahydroquinazolin-2-yl)amino)propyl)cyclohexane-1-carboxylic acid], the AC50 [1] is reported as 449 nM, the “Human NPR1 Amax (% of ANP)” value [1] is reported as 108.428 % of ANP and the AC50 [2, 3] is reported as 296 nM. For the same molecule, the “Monkey NPR1 Amax (% of ANP)” value ([2]; monkey NPR1 CHO-K1 cells) was 113.348 % of ANP.
`CC[C@@H](Nc1nc2c(c(N[C@@H](CN3CCCC3)c3ccccc3)n1)C[C@@H](c1ccccc1)CC2)[C@H]1CC[C@H](C(=O)O)CC1` [Compound 115, (1R,4r)-4-((R)-1-(((S)-6-phenyl-4-(((R)-1-phenyl-2-(pyrrolidin-1-yl)ethyl)amino)-5,6,7,8-tetrahydroquinazolin-2-yl)amino)propyl)cyclohexane-1-carboxylic acid] was tested, and the AC50 [1] was 474 nM, the “Human NPR1 Amax (% of ANP)” value [1] was 111.049 % of ANP and the AC50 [2, 3] was 387 nM. For the same molecule, the “Monkey NPR1 Amax (% of ANP)” value ([2]; monkey NPR1 CHO-K1 cells) was 106.285 % of ANP.
In the case of `CC[C@H]([C@H]1CC[C@H](C(=O)O)CC1)N(C)c1nc2c(c(N[C@@H](CN3CCCCC3)c3cnn(CC)c3)n1)C[C@@H](c1cccc(F)c1)CC2` [Compound 116, (1R,4r)-4-((R)-1-(((S)-4-(((R)-1-(1-ethyl-1H-pyrazol-4-yl)-2-(piperidin-1-yl)ethyl)amino)-6-(3-fluorophenyl)-5,6,7,8-tetrahydroquinazolin-2-yl)(methyl)amino)propyl)cyclohexane-1-carboxylic acid], the AC50 [1] is reported as 477 nM, the “Human NPR1 Amax (% of ANP)” value [1] is reported as 95.817 % of ANP and the AC50 [2, 3] is reported as 471 nM. The “Monkey NPR1 Amax (% of ANP)” value ([2]; monkey NPR1 CHO-K1 cells) was 104.029 % of ANP.
`CC[C@@H](Nc1nc2c(c(N[C@@H](CN3C4CCCC3CC(O)C4)c3cnn(CC)c3)n1)C[C@H](c1cccc(F)c1)CC2)[C@H]1CC[C@H](C(=O)O)CC1` (stereo partly drawn) [Compound 117, (1R,4r)-4-((1R)-1-(((6R)-4-(((1R)-1-(1-ethyl-1H-pyrazol-4-yl)-2-((1R,5S)-3-hydroxy-9-azabicyclo[3.3.1]nonan-9-yl)ethyl)amino)-6-(3-fluorophenyl)-5,6,7,8-tetrahydroquinazolin-2-yl)amino)propyl)cyclohexane-1-carboxylic acid] was tested, and the AC50 [1] was 524 nM, the “Human NPR1 Amax (% of ANP)” value [1] was 100.635 % of ANP and the AC50 [2] was 500 nM. For the same molecule, the “Monkey NPR1 Amax (% of ANP)” value ([2]; monkey NPR1 CHO-K1 cells) was 109.499 % of ANP.
With `CC[C@H]([C@H]1CC[C@H](C(=O)O)CC1)N(C)c1nc2c(c(N[C@@H](CN3CCCCC3)c3cnn(C)c3)n1)C[C@H](c1ccccc1)CC2` [Compound 118, (1R,4r)-4-((R)-1-(methyl((R)-4-(((R)-1-(1-methyl-1H-pyrazol-4-yl)-2-(piperidin-1-yl)ethyl)amino)-6-phenyl-5,6,7,8-tetrahydroquinazolin-2-yl)amino)propyl)cyclohexane-1-carboxylic acid] the AC50 [1] was 540 nM, the “Human NPR1 Amax (% of ANP)” value [1] was 94.446 % of ANP and the AC50 [2, 3] was 400 nM. The “Monkey NPR1 Amax (% of ANP)” value ([2]; monkey NPR1 CHO-K1 cells) was 99.466 % of ANP.
In the case of `CC[C@@H](Nc1nc2c(c(N[C@@H](CN3CCCCC3)c3cnc(C)s3)n1)C[C@H](c1ccccc1)CC2)[C@H]1CC[C@H](C(=O)O)CC1` [Compound 119, (1R,4r)-4-((R)-1-(((R)-4-(((S)-1-(2-methylthiazol-5-yl)-2-(piperidin-1-yl)ethyl)amino)-6-phenyl-5,6,7,8-tetrahydroquinazolin-2-yl)amino)propyl)cyclohexane-1-carboxylic acid], the AC50 [1] is reported as 542 nM, the “Human NPR1 Amax (% of ANP)” value [1] is reported as 89.681 % of ANP and the AC50 [2, 3] is reported as 378 nM. The “Monkey NPR1 Amax (% of ANP)” value ([2]; monkey NPR1 CHO-K1 cells) was 90.965 % of ANP.
With `C[C@H]1CCCN(C[C@H](Nc2nc(N(C)[C@H](C3CC3)[C@H]3CC[C@H](C(=O)O)CC3)nc3c2C[C@H](c2ccccc2)CC3)c2cnn(C)c2)C1` [Compound 120, (1R,4r)-4-((R)-cyclopropyl(methyl((R)-4-(((R)-1-(1-methyl-1H-pyrazol-4-yl)-2-((S)-3-methylpiperidin-1-yl)ethyl)amino)-6-phenyl-5,6,7,8-tetrahydroquinazolin-2-yl)amino)methyl)cyclohexane-1-carboxylic acid] the AC50 [1] was 553 nM, the “Human NPR1 Amax (% of ANP)” value [1] was 96.905 % of ANP and the AC50 [2, 3] was 427 nM. The “Monkey NPR1 Amax (% of ANP)” value ([2]; monkey NPR1 CHO-K1 cells) was 102.755 % of ANP.
